From paper PMC13114161 (Antibiotics, 2026)
Where two headings read alike, the source gives them in different places.

What was measured:
P. aeruginosa ATCC 27853 [1] = assay type: cell-based, Pseudomonas aeruginosa
Procedure: OmpH is a homologous periplasmic chaperone that binds newly synthesized, unfolded outer membrane proteins (OMPs) and delivers them to the outer membrane for assembly by the BAM machinery, thereby preventing aggregation and facilitating proper membrane insertion.
Frequency-of-resistance studies were carried out as described previously.

CYP1A2 = biological target: T1, CYP1A2 (Homo sapiens, UniProt P05177); assay: Cytochrome P450 inhibition; assay type: in vitro ADME; conditions: human liver microsomes, read-out: CYP Inhibition IC50, 1A2
T1 construct: from tissue; host or cells: human liver microsomes
Procedure: (§1) Inhibition of CYP1A2, CYP2D6, CYP2C9, CYP2C19, and CYP3A4 by TXA11114 was assessed in human liver microsomes by measuring the inhibition of probe substrate metabolism. Phenacetin, bufuralol, diclofenac, S-mephenytoin, and midazolam were used as probe substrates for CYP1A2, CYP2D6, CYP2C9, CYP2C19, and CYP3A4, respectively. Corresponding metabolites (acetaminophen, OH-bufuralol, 4-OH diclofenac, 4-OH mephenytoin, and 1-OH midazolam) were quantified by LC-MS/MS. Selective inhibitors (fluvoxamine (CYP1A2), quinidine (CYP2D6), sulfaphenazole (CYP2C9), ticlopidine (CYP2C19), and ketoconazole (CYP3A4)) were used as positive controls. Test and control compounds, prepared in DMSO at various concentrations, were spiked into 2× microsomal reaction mixtures, and 50 µL aliquots were transferred to individual wells. Probe substrates (25 µL, 4× concentration) were added to the respective wells and pre-incubated for 5 min at 37 °C. Reactions were initiated by the addition of 25 µL NADPH (4×) and incubated for 5 min (CYP3A4), 10 min (CYP1A2, CYP2D6, CYP2C9), or 20 min (CYP2C19). Reactions were quenched with 100 µL ice-cold acetonitrile containing glipizide as an internal standard. Plates were centrifuged at 4000 rpm for 15 min, and 100 µL supernatants were analyzed by LC-MS/MS in MRM mode. […] Percent inhibition was calculated as 100 − percent activity. IC50 values were determined using GraphPad Prism (version 5.02).

CYP2C19 = biological target: T2, CYP2C19 (Homo sapiens, UniProt P33261); assay: Cytochrome P450 inhibition; assay type: in vitro ADME; conditions: human liver microsomes, read-out: CYP Inhibition IC50, 2C19
T2 construct: from tissue; host or cells: human liver microsomes
Procedure: as §1

CYP2C9 = biological target: T3, CYP2C9 (Homo sapiens, UniProt P11712); assay: Cytochrome P450 inhibition; assay type: in vitro ADME; conditions: human liver microsomes, read-out: CYP Inhibition IC50, 2C9
T3 construct: from tissue; host or cells: human liver microsomes
Procedure: as §1

in vivo = conditions: female, CD-1, mouse, 30 mg/kg; for half-life: Plasma Half-life; for Vd: Plasma Vd
Procedure: The P. aeruginosa strain UNT034-1 (ATCC 27853) was used for infection studies. Female CD-1 mice (6–8 weeks old; 22 ± 2 g) were obtained from Envigo Laboratories (Indianapolis, IN, USA). All procedures were conducted in accordance with protocols approved by the University of North Texas Health Science Center (UNTHSC) Institutional Animal Care and Use Committee (protocol IACUC-2021-0003). Neutropenia was induced by intraperitoneal (i.p.) injection of cyclophosphamide (Cytoxan) at 150 mg/kg on day 4 and 100 mg/kg on day 1 before infection. Mice were anesthetized by i.p. injection of ketamine (40 mg/kg) and xylazine (6 mg/kg) and intranasally inoculated with 0.05 mL of the prepared P. aeruginosa suspension by placing droplets onto the nares and allowing inhalation. Following inoculation, mice were returned to cages for recovery. […] At predetermined time points (0.083, 0.25, 0.5, 1, 2, 4, 8, and 24 h), groups of three mice were euthanized by CO2 asphyxiation. Blood was collected by cardiac puncture into tubes containing EDTA or serum separator gel, centrifuged at 4 °C, and plasma or serum was harvested within 30 min of collection. Bronchoalveolar lavage fluid (BALF) was collected to determine drug concentrations at the site of infection. Briefly, 1.2 mL of sterile 0.9% NaCl was instilled into the lungs via the trachea and gently withdrawn. The epithelial lining fluid (ELF) dilution factor was determined by the blood urea nitrogen (BUN) method. Plasma and BALF samples were stored at −80 °C until analysis. Drug concentrations were quantified by LC-MS/MS using a Surveyor HPLC system coupled to a TSQ Quantum Ultra triple-quadrupole mass spectrometer (Thermo Scientific). Separation was achieved on a Phenomenex Kinetex PFP column (50 × 2.1 mm, 2.6 µm) with a mobile phase gradient of water (0.1% formic acid, A) and acetonitrile (0.1% formic acid, B) at 0.5 mL/min. The gradient proceeded from 10% to 90% B over 4 min, held for 1 min, and re-equilibrated to initial conditions. The column oven was maintained at 30 °C. […] Samples (50 µL plasma or BALF) were spiked with 10 µL of internal standard in methanol, precipitated with 150 µL acetonitrile, vortexed, sonicated for 10 min, and centrifuged at 14,500 rpm for 5 min. A 100 µL aliquot of the supernatant was transferred to autosampler vials, and 10 µL was injected for analysis. Concentration-time data were analyzed using noncompartmental methods (PK Solutions v2.0; Summit Research Services, Montrose, CO, USA). Parameters including area under the concentration-time curve (AUC0-t), maximum concentration (Cmax), time to Cmax (Tmax), apparent volume of distribution (Vd), systemic clearance (CL), and terminal half-life (t½) were calculated. Data are presented as means ± standard deviation (SD) for three animals per time point.

P. aeruginosa ATCC 27853 [2] = assay: Neutropenic murine lung infection model; assay type: in vivo, CD-1 mice; conditions: for Mean Log10 CFU (lung): +24 hr
Procedure: For the lung infection model, mice were anesthetized by IP injection of 0.15 mL of a ketamine (40 mg/kg) + xylazine (6 mg/kg) mixture and inoculated intranasally (IN) with 0.05 mL of a 4 × 10^8 CFU/mL bacterial suspension applied dropwise to the external nares. Two hours post-infection, mice received test articles IV (EPIs) or SC (levofloxacin). At 2 h or 24 h post-infection, mice were euthanized by CO2 asphyxiation, and lungs were aseptically removed, placed in 2 mL sterile PBS, and homogenized using the same procedure described above. Homogenates were serially diluted and plated (8 µL spots) onto BHI-charcoal and citrate agar, incubated overnight at 37 °C, and colonies were counted the following day.

P. aeruginosa = assay: Effect of inoculum on levofloxacin potentiation (MIC); assay type: cell-based, Pseudomonas aeruginosa
Procedure: MIC assays for potentiation of antimicrobial activity against P. aeruginosa were performed as described previously.

[3] = levofloxacin 15 mg/kg SC QID, alone or with TXA11114 30 mg/kg IV QID
[4] = levofloxacin 30 mg/kg SC QID, alone or with TXA11114 30 mg/kg IV QID

T3 sequence (P11712 whole entry): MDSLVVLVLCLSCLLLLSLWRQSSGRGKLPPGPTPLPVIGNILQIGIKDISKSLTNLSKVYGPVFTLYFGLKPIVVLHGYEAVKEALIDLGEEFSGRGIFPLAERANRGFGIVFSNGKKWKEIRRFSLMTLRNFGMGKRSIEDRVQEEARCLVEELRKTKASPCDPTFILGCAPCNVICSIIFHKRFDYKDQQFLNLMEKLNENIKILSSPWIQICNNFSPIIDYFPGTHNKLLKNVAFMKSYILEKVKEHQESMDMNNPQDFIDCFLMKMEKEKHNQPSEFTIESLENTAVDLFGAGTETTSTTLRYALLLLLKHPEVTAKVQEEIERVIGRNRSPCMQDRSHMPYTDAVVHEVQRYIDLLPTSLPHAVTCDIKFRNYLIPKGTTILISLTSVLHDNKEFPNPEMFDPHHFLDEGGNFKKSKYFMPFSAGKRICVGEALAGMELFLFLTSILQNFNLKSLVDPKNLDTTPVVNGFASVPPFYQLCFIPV
T2 sequence (P33261 whole entry): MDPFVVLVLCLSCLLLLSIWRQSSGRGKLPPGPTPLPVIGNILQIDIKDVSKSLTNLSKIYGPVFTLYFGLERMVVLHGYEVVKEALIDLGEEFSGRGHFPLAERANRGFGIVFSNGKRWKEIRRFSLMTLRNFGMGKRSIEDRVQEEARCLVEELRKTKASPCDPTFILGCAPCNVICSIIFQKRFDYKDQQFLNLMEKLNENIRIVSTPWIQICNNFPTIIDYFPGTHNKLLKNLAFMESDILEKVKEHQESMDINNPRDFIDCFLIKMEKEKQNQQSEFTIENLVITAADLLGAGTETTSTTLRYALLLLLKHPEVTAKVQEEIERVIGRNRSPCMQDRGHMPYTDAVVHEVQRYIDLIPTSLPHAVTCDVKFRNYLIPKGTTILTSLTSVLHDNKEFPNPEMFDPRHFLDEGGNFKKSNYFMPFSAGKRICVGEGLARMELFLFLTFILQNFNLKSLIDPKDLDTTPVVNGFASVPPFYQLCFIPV
T1 sequence (P05177 whole entry): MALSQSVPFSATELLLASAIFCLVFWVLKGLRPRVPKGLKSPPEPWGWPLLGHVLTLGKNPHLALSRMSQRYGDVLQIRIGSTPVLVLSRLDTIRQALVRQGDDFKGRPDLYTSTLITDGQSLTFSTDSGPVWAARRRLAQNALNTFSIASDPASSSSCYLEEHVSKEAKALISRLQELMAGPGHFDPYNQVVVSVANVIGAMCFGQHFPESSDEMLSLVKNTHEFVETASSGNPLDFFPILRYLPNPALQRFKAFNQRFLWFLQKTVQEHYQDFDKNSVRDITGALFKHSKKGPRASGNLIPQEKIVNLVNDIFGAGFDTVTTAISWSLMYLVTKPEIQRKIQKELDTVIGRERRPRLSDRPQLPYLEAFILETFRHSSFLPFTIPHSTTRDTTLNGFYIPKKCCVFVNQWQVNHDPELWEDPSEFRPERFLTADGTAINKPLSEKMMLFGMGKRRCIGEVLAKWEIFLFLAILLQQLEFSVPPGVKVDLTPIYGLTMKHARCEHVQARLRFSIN

NCC(F)C[C@@H](N)CNC(=O)c1cc2ccc(-c3ccc(F)cc3)cc2[nH]1 (stereo partly drawn) [TXA11114, N-((2R)-2,5-diamino-4-fluoropentyl)-6-(4-fluorophenyl)-1H-indole-2-carboxamide]
Frequency of Resistance (P. aeruginosa ATCC 27853 [1]): <1.04 × 10^−10
FoR, resistance to TXA11114 alone (P. aeruginosa ATCC 27853 [1]; 1X-MIC (100 µg/mL), ATCC 27853): 1.8 × 10^−6
FoR, resistance to TXA11114 alone (P. aeruginosa ATCC 27853 [1]; 4X-MIC (400 µg/mL), ATCC 27853): <3.09 × 10^−9
IC50 (CYP1A2): > 100 µM
IC50 (CYP2C19): > 100 µM
IC50 (CYP2C9): > 100 µM
AUC(0-t) (in vivo; BALF AUC 0-t): 13200 ng·h/mL
Tmax (in vivo; BALF Tmax): 240 min
AUC(0-t) (in vivo; Plasma AUC 0-t): 30700 ng·h/mL
Cmax (in vivo; Plasma Cmax): 13000 ng/mL
half-life (in vivo): 110 min
Tmax (in vivo; Plasma Tmax): 4.98 min
Vd (in vivo): 2.5 L/kg
Effect of EPI alone on bacterial burden, lung (P. aeruginosa ATCC 27853 [2]; 30 mg/kg, IV, QID): did not reduce bacterial burden
Mean Log10 CFU (lung) (P. aeruginosa ATCC 27853 [2]; TXA11114 30 mg/kg IV QID alone): 8.75 log10 CFU
Mean Log10 CFU Change vs +2 hr Control, Δlog10 (treatment-baseline), lung (P. aeruginosa ATCC 27853 [2]; TXA11114 30 mg/kg IV QID alone): 4.16 log10 CFU
LVX MIC (P. aeruginosa; OD600 0.001, TXA11114 25 μg/mL): 0.031 µg/mL
LVX MIC fold difference (P. aeruginosa; OD600 0.001, TXA11114 25 μg/mL): 32 fold
LVX MIC (P. aeruginosa; OD600 0.001, TXA11114 50 μg/mL): 0.008 µg/mL
LVX MIC fold difference (P. aeruginosa; OD600 0.001, TXA11114 50 μg/mL): 128 fold
LVX MIC (P. aeruginosa; OD600 0.025, TXA11114 25 μg/mL): 0.063 µg/mL
LVX MIC fold difference (P. aeruginosa; OD600 0.025, TXA11114 25 μg/mL): 32 fold
LVX MIC (P. aeruginosa; OD600 0.025, TXA11114 50 μg/mL): 0.031 µg/mL
LVX MIC fold difference (P. aeruginosa; OD600 0.025, TXA11114 50 μg/mL): 64 fold
Minimal potentiation concentration (MPC) (P. aeruginosa; standard broth microdilution inoculum): 6.25 µg/mL

NC[C@@H]1CN[C@H](CNC(=O)c2cc3ccc(-c4ccc(F)cc4)cc3[nH]2)C1 [TXA09155]
IC50 at 10 min (CYP1A2; probe phenacetin): > 100 µM
IC50 at 20 min (CYP2C19; probe S-mephenytoin): > 100 µM
IC50 at 10 min (CYP2C9; probe diclofenac): > 100 µM

C[C@H]1COc2c(N3CCN(C)CC3)c(F)cc3c(=O)c(C(=O)O)cn1c23 [Levofloxacin, levofloxacin]
Frequency of Resistance (P. aeruginosa ATCC 27853 [1]; ATCC 27853, levofloxacin 4× MIC (4 μg/mL) alone): 3.80 × 10^−8
Cmax (in vivo; BALF Cmax): 2000 ng/mL
Tmax (in vivo; BALF Tmax): 15 min
AUC(0-t) (in vivo; Plasma AUC 0-t): 32900 ng·h/mL
Cmax (in vivo; Plasma Cmax): 24100 ng/mL
half-life (in vivo): 88.8 min
Tmax (in vivo; Plasma Tmax): 15 min
Vd (in vivo): 1.89 L/kg
AUC(0-t) (in vivo; sc, BALF AUC 0-t): 3900 ng·h/mL
Mean Log10 CFU (lung) (P. aeruginosa ATCC 27853 [2]; [3]): 5.86 log10 CFU
Mean Log10 CFU (lung) (P. aeruginosa ATCC 27853 [2]; [4]): 3.98 log10 CFU
Mean Log10 CFU Change vs +2 hr Control, Δlog10 (treatment-baseline), lung (P. aeruginosa ATCC 27853 [2]; [3]): 1.27 log10 CFU
Mean Log10 CFU Change vs +24 hr Control, lung (P. aeruginosa ATCC 27853 [2]; [3]): 3.03 log10 CFU
Reduction of lung CFU at 24 h post-infection (P. aeruginosa ATCC 27853 [2]; [4]): 0.61 log10 CFU
LVX MIC (P. aeruginosa; OD600 0.001, TXA11114 0 μg/mL): 1 µg/mL
LVX MIC (P. aeruginosa; OD600 0.025, TXA11114 0 μg/mL): 2 µg/mL
